Test results as given in patent US20180289809A1, “FORMULATIONS OF HYDROPHILIC COMPOUNDS” (BCS Business Consulting Services Pte Ltd., priority 2015, published 2018).

Assay: Formation of clear nanoemulsion formulation with substituted hydrophobic phase ingredient
Assay type: physicochemical
Conditions: used as hydrophobic phase ingredient substituted into the examples; failures generally began cloudy and separated into two phases, primarily within 24 hours

Row | Compound | forms successful nanoemulsion / clear formulation
1 | CC(C)=CCC/C(C)=C/CC/C(C)=C/CC/C=C(\C)CC/C=C(\C)CCC=C(C)C [Squalene] | did form clear formulations
2 | CCCCCCCCCCCCCCCCOC(=O)CCCCCCC [cetyl octanoate] | did not form successful nanoemulsion formulations
3 | C[Si]1(C)O[Si](C)(C)O[Si](C)(C)O[Si](C)(C)O[Si](C)(C)O1 [cycopentasiloxane] | did not form successful nanoemulsion formulations
4 | CCCCC(CC)COC(=O)c1ccccc1 (stereo not shown) [ethylhexyl benzoate] | did not form successful nanoemulsion formulations
5 | CCCCCCCCCCCCCCCC(=O)OC(C)C [isopropyl palmitate] | did not form successful nanoemulsion formulations
6 | CCCCCCCCCCCCCCCCCC(=O)OCCCCCCCC [octyl stearate] | did not form successful nanoemulsion formulations
7 | CCCCC/C=C\C/C=C\CCCCCCCC(=O)Oc1c(C)c(C)c2c(c1C)CC[C@@](C)(CCC[C@H](C)CCC[C@H](C)CCCC(C)C)O2 [tocopheryl linoleate] | did not form successful nanoemulsion formulations
